# Measurements: patent publication US10363231B2, “Compounds and methods of treating ocular disorders” (CASE WESTERN RESERVE UNIVERSITY, priority 2014, dated 2019)
# Legend:
# Abca4^−/−Rdh8^−/− mice = assay: Light-induced acute retinal degeneration in Abca4−/−Rdh8−/− mice (OCT, 11-cis-retinal, ERG); assay type: in vivo; conditions: 2 mg; dark 24 h, then 10,000 lux 1 h
# LRAT = target: T1, LRAT (Bos taurus, UniProt Q9BGL2); assay: LRAT activity assay with bovine RPE microsomes (esterification of the corresponding primary alcohols); assay type: biochemical; conditions: for LRAT Substrate: percentage of the corresponding primary alcohol esterified by LRAT in 1 h at 37° C, 10 μM, RPE microsomes
# T1 construct: incubated with RPF microsomes that served as a source of LRAT enzymatic activity; from tissue; host or cells: bovine retinal pigment epithelium (RPE) microsomes
# T1 sequence (Q9BGL2 1-230): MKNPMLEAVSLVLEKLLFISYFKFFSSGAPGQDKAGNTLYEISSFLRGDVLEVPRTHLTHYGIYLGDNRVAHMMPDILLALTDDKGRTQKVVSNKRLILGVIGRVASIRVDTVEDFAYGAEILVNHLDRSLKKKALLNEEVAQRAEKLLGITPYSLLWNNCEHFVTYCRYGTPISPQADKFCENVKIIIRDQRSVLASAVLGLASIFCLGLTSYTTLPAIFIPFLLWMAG
# Experimental: Bovine RPE microsomes were isolated from RPE homogenates by differential centrifugation as previously described. The resulting microsomal precipitate was resuspended in 10 mM Bis-Tris propane/HCl buffer, pH 7.4, to achieve a total protein concentration of […]. Then the mixture was placed in a quartz cuvette and irradiated for 6 min at 4° C. with a ChromatoUVE transilluminator (model TM-15; UVP) to eliminate residual retinoids. After irradiation, DTT was added to the RPE microsomal mixture to achieve a final concentration of 5 mM.
# Two μl of a synthesized primary alcohol or amine dissolved in DMF (final concentration 10 μM) and 2 μl of 1,2-diheptanoyl-sn-glicerol-3-phosphocholine (water, final concentration 1 mM) were added to 200 μl of 10 mM Bis-Tris propane/HCl buffer, pH 7.4, containing 150 μg of RPE microsomes and 1% (v/w) BSA. The resulting mixture was incubated at 37° C. for 1 h. The reaction was quenched by adding 300 μl of methanol. Most reaction products were extracted with 300 μl of hexanes, except for products from the QEA-C-006 and QEA-G groups which were extracted by adding 300 μl of ethyl acetate and 300 μl of water.
# Reaction products were separated and quantified by normal phase HPLC (Agilent Sil 5 μm, 4.6 mm×250 mm) in stepwise gradient of ethyl acetate in hexanes (0-15 min, 10%; 20-30 min, 30%) at a flow rate of 1.4 ml·min^−1.
# The properties of retinoid derivatives were examined by two standard enzymatic tests, the […] and retinoid isomerization assays. To identify substrates of LRAT, aldehydes were reduced by sodium borohydrate to their corresponding primary alcohols that then were directly used in the esterification assay (FIG. 2B).
# The alcohols were incubated with RPF microsomes that served as a source of LRAT enzymatic activity. Products of the enzymatic reaction as well as the remaining substrates were extracted with organic solvents and analyzed by HPLC. The ratio between a substrate and its esterified form was used to measure enzymatic activity efficiency, based on equivalent UV absorption of the substrate and product at their specific UV maxim wavelengths. Compounds classified as ‘good’ LRAT substrates converted at least 50% of their available alcohol substrates into corresponding esters under these experimental conditions, whereas marginal LRAT substrates were converted at less than 5%. Alcohols with a 5-50% conversion ratio were classified as weak substrates. Among 35 tested compounds, 23 were categorized as good and 9 as weak substrates; 3 compounds were not esterified by LRAT (Table 1 and FIG. 2C). […] Moreover, breaking double bond conjugation along the polyene chain or deletion of a C9 and/or a C13 methyl group also was allowed.
# WT mice = assay: Visual chromophore recovery assay (inhibition of the visual cycle in vivo); conditions: for inhibition of the recovery of visual chromophore: 24 h after gavage; for recovery of 11-cis-retinal in the eye, of the pre-bleached level: at 6 h after bleaching
Compound,protection of ONL (averaged ONL thickness by OCT) (Abca4^−/−Rdh8^−/− mice),LRAT Substrate (LRAT) [%],inhibition of the recovery of visual chromophore (WT mice; 0.1 mg),inhibition of the recovery of visual chromophore (WT mice; 0.2 mg) [%],"recovered 11-cis-retinal (WT mice; 0.2 mg, day 3 after administration) [%]","inhibitory effect on 11-cis-retinal regeneration (WT mice; 0.2 mg, day 7)","recovery of 11-cis-retinal in the eye, of the pre-bleached level (WT mice; 0.2 mg, light 2 h after administration) [%]","recovery of 11-cis-retinal in the eye, of the pre-bleached level (WT mice; 0.2 mg, light 24 h after administration) [%]",inhibition of the recovery of visual chromophore (WT mice; 0.5 mg) [%],"recovery of 11-cis-retinal (WT mice; 0.5 mg, 7 days after administration) [%]","time point with the strongest inhibition of the retinoid cycle (WT mice; 0.1 to 0.5 mg, gavage 2 h to 7 days before light) [h]","duration of inhibition of the retinoid cycle (WT mice; gavage 2 h to 7 days before light, 11-cis-retinal 6 h after bleaching)",LRAT substrate class (LRAT; conversion of the alcohol to ester)
"CC1=C(/C=C/C(C)=C/C=C/C(C)=C/CN)C(C)(C)CCC1 [QEA-A-001-NH2, retinylamine]",protected,100,about 40%,~80,61±2.2,nearly disappeared,50±13,22±5.0,~95,56±9.1,24,more than 7 days,–
CC(/C=C/C=C(/C=C/C1=CCCCC1)C(C)(C)C)=C\CN [QEA-B-001-NH2],–,80,–,–,–,–,–,–,–,–,–,–,good (Compounds classified as ‘good’ LRAT substrates converted at least 50% of their available alcohol substrates into corresponding esters)
